Assay results reported in patent US9587266B2, “Mutant luciferases” (University of Massachusetts, priority 2011, dated 2017).
Values joined by “and” are separate entries in the source; they are usually repeats but may differ in a detail not shown here. Equal entries are not always repeated. Where two headings read alike, the source gives them in different places.

Key:
[1] = molecular target: T1, S347A mutant luciferase (Photinus pyralis, UniProt P08659, S347A); type: biochemical; conditions: purified protein; for Km: 3 minutes post-substrate addition, read-out: Apparent Km
T1 construct: The full firefly (Photinus pyralis) luciferase gene was PCR amplified from pGL3 (Promega); GST (N, cleaved yes); made in house; host or cells: E. coli JM109
Method: (§1) The PCR product was cloned into the BamH1 and NotI sites of pGEX6P-1 for bacterial expression. Mutant proteins were created using the Quickchange site-directed mutagenesis kit (Stratagene). Saturating mutagenesis was performed using the used the degenerate codon NNK at sites predicted to impact or alter substrate biding including F247, T251, L286, S347, R337, R218, Q338, Y340, A313, and I351 using the degenerate codon NNK.
(§2) Luminescence assays in 96-well plates were initiated by adding 30 μL 2× substrate in 20 mM Tris pH 7.6, 0.1 mM EDTA, 8 mM MgSO4, 4 mM ATP, and 1 mM TCEP to 30 μL of 20 nM purified luciferase in 20 mM Tris pH 7.6, 0.1 mM EDTA, 1 mM TCEP and 0.4 mg/mL BSA.

[2] = molecular target: T2, R218K mutant luciferase (Photinus pyralis, UniProt P08659, R218K); type: biochemical; conditions: for Apparent Vmax / Km: R218K luciferase, purified protein; for Km: 3 minutes post-substrate addition, read-out: Apparent Km
T2 construct: The full firefly (Photinus pyralis) luciferase gene was PCR amplified from pGL3 (Promega); GST (N, cleaved yes); made in house; host or cells: E. coli JM109
Method: as §1, §2

[3] = molecular target: T3, R218K + L342A luciferase (Photinus pyralis, UniProt P08659, L342A/R218K); type: biochemical
T3 construct: The full firefly (Photinus pyralis) luciferase gene was PCR amplified from pGL3 (Promega); GST (N, cleaved yes); made in house; host or cells: E. coli JM109
Method: (§3) Purified mutant luciferases were used in bioluminescence emission and burst kinetics scans. Each purified protein in 20 mM Tris pH 7.6, 0.1 mM EDTA, 1 mM TCEP and 0.4 mg/mL BSA was added to 2× substrate in 20 mM Tris pH 7.6, 0.1 mM EDTA, 8 mM MgSO4, 4 mM ATP, and 1 mM TCEP in a cuvette.
(§4) Luciferase was rapidly injected into a cuvette containing substrate, and the emission from 400-800 nm was recorded in a SPEX FluoroMax-3 fluorimeter with closed excitation slits.

[4] = molecular target: T4, WT luciferase (Photinus pyralis, UniProt P08659); type: biochemical; conditions: for Maximum Emission Wavelength of Selected Substrate: Table 3
T4 construct: The full firefly (Photinus pyralis) luciferase gene was PCR amplified from pGL3 (Promega); GST (N, cleaved yes); made in house; host or cells: E. coli JM109
Method: as §3, §4

[5] = molecular target: T4, WT luciferase; test: Titration assay with purified protein; type: biochemical; conditions: for Km: 3 minutes post-substrate addition, read-out: Apparent Km
Method: as §1, with “NNK. The point mutants S347A, L286A, A348G, E311A, I351A, A313G, R337A, H245A and L342A were made independently.” for “NNK.”
as §2, with “BSA. Titration assays were performed 3 minutes post-substrate addition in a Turner Veritas luminometer with final substrate concentrations ranging from 0.122-250 μM or 0.244-500 μM.” for “BSA.”

[6] = molecular target: T5, T251S mutant luciferase (Photinus pyralis, UniProt P08659, T251S); test: Titration assay with purified protein; type: biochemical; conditions: for Km: 3 minutes post-substrate addition, read-out: Apparent Km
T5 construct: The full firefly (Photinus pyralis) luciferase gene was PCR amplified from pGL3 (Promega); GST (N, cleaved yes); made in house; host or cells: E. coli JM109
Method: as §1, §2

[7] = molecular target: T6, L286M mutant luciferase (Photinus pyralis, UniProt P08659, L286M); test: Titration assay with purified protein; type: biochemical; conditions: for Km: 3 minutes post-substrate addition, read-out: Apparent Km
T6 construct: The full firefly (Photinus pyralis) luciferase gene was PCR amplified from pGL3 (Promega); GST (N, cleaved yes); made in house; host or cells: E. coli JM109
Method: as §1, §2

[8] = molecular target: T7, L286M + S347A luciferase (Photinus pyralis, UniProt P08659, L286M/S347A); test: Bioluminescence emission scan; type: biochemical
T7 construct: The full firefly (Photinus pyralis) luciferase gene was PCR amplified from pGL3 (Promega); GST (N, cleaved yes); made in house; host or cells: E. coli JM109
Method: (§5) Purified mutant luciferases were used in bioluminescence emission and burst kinetics scans.
as §4

[9] = molecular target: T8, L342A luciferase (Photinus pyralis, UniProt P08659, L342A); test: Bioluminescence emission scan; type: biochemical
T8 construct: The full firefly (Photinus pyralis) luciferase gene was PCR amplified from pGL3 (Promega); GST (N, cleaved yes); made in house; host or cells: E. coli JM109
Method: as §5, §4

[10] = molecular target: T9, R218K luciferase (Photinus pyralis, UniProt P08659, R218K); test: Bioluminescence emission scan; type: biochemical
T9 construct: The full firefly (Photinus pyralis) luciferase gene was PCR amplified from pGL3 (Promega); GST (N, cleaved yes); made in house; host or cells: E. coli JM109
Method: as §5, §4

[11] = molecular target: T10, L286M luciferase (Photinus pyralis, UniProt P08659, L286M); test: Bioluminescence emission scan; type: biochemical
T10 construct: The full firefly (Photinus pyralis) luciferase gene was PCR amplified from pGL3 (Promega); GST (N, cleaved yes); made in house; host or cells: E. coli JM109
Method: as §5, §4

[12] = molecular target: T11, F247V luciferase (Photinus pyralis, UniProt P08659, F247V); test: Bioluminescence emission scan; type: biochemical
T11 construct: The full firefly (Photinus pyralis) luciferase gene was PCR amplified from pGL3 (Promega); GST (N, cleaved yes); made in house; host or cells: E. coli JM109
Method: as §5, §4

[13] = tested on: Nc1ccc2nc(C3=N[C@@H](C(=O)O)CS3)sc2c1; test: purified protein, by the assay type; conditions: 3 minutes post-substrate addition, pH 7.6

T6 sequence (P08659 whole entry L286M): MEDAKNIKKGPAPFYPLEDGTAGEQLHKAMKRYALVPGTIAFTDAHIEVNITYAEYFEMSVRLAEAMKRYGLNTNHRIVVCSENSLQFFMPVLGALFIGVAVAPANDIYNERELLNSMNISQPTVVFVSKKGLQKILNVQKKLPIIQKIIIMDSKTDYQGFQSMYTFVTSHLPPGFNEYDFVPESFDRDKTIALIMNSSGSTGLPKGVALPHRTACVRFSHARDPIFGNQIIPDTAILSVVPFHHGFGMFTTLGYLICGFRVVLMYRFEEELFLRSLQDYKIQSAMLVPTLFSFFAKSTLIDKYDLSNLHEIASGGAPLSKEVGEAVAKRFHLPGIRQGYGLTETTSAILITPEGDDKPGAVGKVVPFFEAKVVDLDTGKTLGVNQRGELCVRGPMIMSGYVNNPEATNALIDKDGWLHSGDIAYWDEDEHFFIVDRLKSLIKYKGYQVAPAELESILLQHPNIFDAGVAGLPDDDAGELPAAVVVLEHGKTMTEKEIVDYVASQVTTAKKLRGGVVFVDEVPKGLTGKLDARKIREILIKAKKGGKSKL
T7 sequence (P08659 whole entry L286M/S347A): as the sequence (P08659 whole entry L286M) above, with S347A counted along it
T2 sequence (P08659 whole entry R218K): as the sequence (P08659 whole entry L286M) above, with R218K, M286L counted along it
T9 sequence (P08659 whole entry R218K): as the sequence (P08659 whole entry L286M) above, with R218K, M286L counted along it
T5 sequence (P08659 whole entry T251S): as the sequence (P08659 whole entry L286M) above, with T251S, M286L counted along it
T3 sequence (P08659 whole entry R218K/L342A): as the sequence (P08659 whole entry L286M) above, with R218K, M286L, L342A counted along it
T8 sequence (P08659 whole entry L342A): as the sequence (P08659 whole entry L286M) above, with M286L, L342A counted along it
T4 sequence (P08659 whole entry): as the sequence (P08659 whole entry L286M) above, with M286L counted along it
T1 sequence (P08659 whole entry S347A): as the sequence (P08659 whole entry L286M) above, with M286L, S347A counted along it
T10 sequence (P08659 whole entry L286M): as the sequence (P08659 whole entry L286M) above
T11 sequence (P08659 whole entry F247V): as the sequence (P08659 whole entry L286M) above, with F247V, M286L counted along it

Molecule | Maximum Emission Wavelength of Selected Substrate [3] [nm] | Maximum Emission Wavelength of Selected Substrate [4] [nm] | Maximum Emission Wavelength of Selected Substrate [8] [nm] | Maximum Emission Wavelength of Selected Substrate [9] [nm] | Maximum Emission Wavelength of Selected Substrate [10] [nm] | further results
CN(C)c1ccc2nc(C3=NC(C(=O)O)CS3)sc2c1 (stereo not shown) [6′-Me2NLH2] | 628 | 619 | 608 | 619 | 624 | Apparent Vmax [1]: 2.1 ± 0.02 ×10^−5 cps; Km [1]: 0.24 ± 0.014 µM; Apparent Vmax [2]: 5 ± 0.1 ×10^−5 cps; Km [2]: 0.35 ± 0.04 µM; Apparent Vmax [5]: 0.5 ± 0.003 ×10^−5 cps; Km [5]: 0.025 ± 0.003 µM; Apparent Vmax [6]: 1.6 ± 0.02 ×10^−5 cps; Km [6]: 0.3 ± 0.02 µM; Apparent Vmax [7]: 1.3 ± 0.01 ×10^−5 cps; Km [7]: 0.08 ± 0.005 µM
CNc1ccc2nc(C3=NC(C(=O)O)CS3)sc2c1 (stereo not shown) [6′-MeNHLH2, Monomethylaminoluciferin] | 612 | 608 | 599 | 611 | 610 | Apparent Vmax [1]: 16 ± 0.2 ×10^−5 cps; Km [1]: 0.47 ± 0.03 µM; Apparent Vmax [2]: 38 ± 0.5 ×10^−5 cps; Km [2]: 0.45 ± 0.04 µM; Apparent Vmax [5]: 3 ± 0.02 ×10^−5 cps; Km [5]: 0.06 ± 0.004 µM; Apparent Vmax [6]: 8 ± 0.1 ×10^−5 cps; Km [6]: 0.27 ± 0.02 µM; Apparent Vmax [7]: 7 ± 0.05 ×10^−5 cps; Km [7]: 0.08 ± 0.005 µM
CN1CCc2cc3nc(C4=N[C@@H](C(=O)O)CS4)sc3cc21 [CycLuc2] | 617 | 609 | 608 | 611 | 621 | Apparent Vmax [1]: 7.6 ± 0.05 ×10^−5 cps; Km [1]: 0.11 ± 0.005 µM; Apparent Vmax [2]: 26 ± 0.3 ×10^−5 cps; Km [2]: 0.3 µM and 0.27 µM; improvement in the maximal sustained emission ([2]; R218K mutant relative to wild-type luciferase): 20 fold; Apparent Vmax [5]: 1.3 ± 0.02 ×10^−5 cps; Apparent Vmax [6]: 4.8 ± 0.1 ×10^−5 cps; Km [6]: 0.13 ± 0.02 µM; Apparent Vmax [7]: 2.3 ± 0.02 ×10^−5 cps; Km [7]: 0.1 ± 0.01 µM; Maximum Emission Wavelength of Selected Substrate ([10]; listed as Cyc2): 619 nm
O=C(O)C1CSC(c2nc3cc4c(cc3s2)NCCO4)=N1 (stereo not shown) [CycLuc3, 2-(7,8-Dihydro-6H-5-oxa-1-thia-3,8-diaza-cyclopenta[b]naphthalen-2-yl)-4,5-dihydro-thiazole-4-carboxylic acid] | 606 | 599 | 590 | 599 | 605 | Wavelength at Max. Emission ([4]; Table 2): 594 nm; Wavelength at Max. Emission [11]: 592 nm; Wavelength at Max. Emission [12]: 599 nm
CN1CCOc2cc3nc(C4=NC(C(=O)O)CS4)sc3cc21 (stereo not shown) [CycLuc4, 2-(8-Methyl-7,8-dihydro-6H-5-oxa-1-thia-3,8-diaza-cyclopenta[b]naphthalen-2-yl)-4,5-dihydro-thiazole-4-carboxylic acid] | 616 | 607 | 602 | 608 | 617 | –
CC1=CC(C)(C)Nc2cc3sc(C4=NC(C(=O)O)CS4)nc3cc21 (stereo not shown) [CycLuc5, 2-(6,6,8-Trimethyl-5,6-dihydro-thiazolo[4,5-g]quinolin-2-yl)-4,5-dihydro-thiazole-4-carboxylic acid] | 633 | 637 | 631 | 631 | 635 | –
CC1=CC(C)(C)N(C)c2cc3sc(C4=NC(C(=O)O)CS4)nc3cc21 (stereo not shown) [CycLuc6, 2-(5,6,6,8-Tetramethyl-5,6-dihydro-thiazolo[4,5-g]quinolin-2-yl)-4,5-dihydro-thiazole-4-carboxylic acid] | 635 | 636 | 628 | 639 | 637 | –
O=C(O)C1CSC(c2nc3cc4c(cc3s2)NCCC4)=N1 (stereo not shown) [CycLuc7, 2-(5,6,7,8-Tetrahydro-thiazolo[4,5-g]quinolin-2-yl)-4,5-dihydro-thiazole-4-carboxylic acid] | 616 | 607 | 604 | 611 | 620 | –
CN1CCCc2cc3nc(C4=NC(C(=O)O)CS4)sc3cc21 (stereo not shown) [CycLuc8, 2-(5-Methyl-5,6,7,8-tetrahydro-thiazolo[4,5-g]quinolin-2-yl)-4,5-dihydro-thiazole-4-carboxylic acid] | 628 | 610 | 605 | 614 | 632 | –
CCCO [Propanol] | 609 | 608 | 593 | 607 | 609 | –
L286M mutant luciferase (Photinus pyralis; L286M) | – | – | – | – | – | Km ([13]; other: L286M luciferase): 4.35 ± 0.2 µM
R218K mutant luciferase (Photinus pyralis; R218K) | – | – | – | – | – | Km ([13]; other: R218K luciferase): 15.2 ± 1.1 µM
S347A mutant luciferase (Photinus pyralis; S347A) | – | – | – | – | – | Km ([13]; other: S347A luciferase): 31.0 ± 0.4 µM
T251S mutant luciferase (Photinus pyralis; T251S) | – | – | – | – | – | Km ([13]; other: T251S luciferase): 17.3 ± 0.3 µM
